Assay results: ChEMBL document CHEMBL3259577, “Antagonists of the kappa opioid receptor” (Bioorg Med Chem Lett, 2014)
Each block holds one compound with its values, some of them ahead of it. Peptide text beside a SMILES is read from it.

Legend:
[1] = system: Rattus norvegicus; experiment: Analgesic activity in po dosed rat assessed as inhibition of formalin response; type: functional
[2] = species: Homo sapiens; experiment: Selectivity ratio for OPRK (unknown origin) to OPRM (unknown origin)
[3] = Half life in rat at 10 mg/kg, po; type: ADME, organism-based; parameters: dose 10 mg/kg, route oral; settings: in vivo
[4] = Cmax in rat at 10 mg/kg, po; type: ADME, organism-based; parameters: dose 10 mg/kg, route oral; settings: in vivo
[5] = Clearance in rat at 1 mg/kg, iv; type: ADME, organism-based; parameters: dose 1 mg/kg, route intravenous; settings: in vivo
[6] = Cmax in rat at 1 mg/kg, iv; type: ADME, organism-based; parameters: dose 1 mg/kg, route intravenous; settings: in vivo
[7] = Half life in rat at 1 mg/kg, iv; type: ADME, organism-based; parameters: dose 1 mg/kg, route intravenous; settings: in vivo
[8] = AUC in rat at 1 mg/kg, iv; type: ADME, organism-based; parameters: dose 1 mg/kg, route intravenous; settings: plasma
[9] = Tmax in rat at 1 mg/kg, iv; type: ADME, organism-based; parameters: dose 1 mg/kg, route intravenous; settings: in vivo
[10] = AUC in rat at 10 mg/kg, po; type: ADME, organism-based; parameters: dose 10 mg/kg, route oral; settings: plasma
[11] = Oral bioavailability in rat at 10 mg/kg; type: ADME, organism-based; settings: in vivo
[12] = Tmax in rat at 10 mg/kg, po; type: ADME, organism-based; parameters: dose 10 mg/kg, route oral; settings: in vivo
[13] = biological target: T1, Delta-type opioid receptor (Homo sapiens, UniProt P41143); experiment: Inhibition of delta opioid receptor (unknown origin) using SNC-80 by high content imaging beta-arrestin translocation assay
[14] = biological target: T2, Kappa-type opioid receptor (Homo sapiens, UniProt P41145); experiment: Inhibition of kappa opioid receptor (unknown origin) using dynorphin A by high content imaging beta-arrestin translocation assay
[15] = biological target: Muscarinic acetylcholine receptor M4 (Homo sapiens, UniProt P08173); experiment: Binding affinity to muscarinic M4 receptor (unknown origin)
[16] = biological target: Sigma non-opioid intracellular receptor 1 (Homo sapiens, UniProt Q99720); experiment: Binding affinity to sigma-1 receptor (unknown origin)
[17] = biological target: Muscarinic acetylcholine receptor M3 (Homo sapiens, UniProt P20309); experiment: Binding affinity to muscarinic M3 receptor (unknown origin)
[18] = biological target: T2, Kappa-type opioid receptor; experiment: Inhibition of kappa opioid receptor (unknown origin) using dynorphin A by DiscoveryRx b-arrestin PathHunter assay
[19] = biological target: Muscarinic acetylcholine receptor M2 (Homo sapiens, UniProt P08172); experiment: Binding affinity to muscarinic M2 receptor (unknown origin)
[20] = biological target: T1, Delta-type opioid receptor; experiment: Agonist activity at human cloned delta opioid receptor expressed in CHO cells assessed as stimulation of [35S]-GTP[gammaS] binding; type: functional, cell-based
[21] = biological target: T3, Mu-type opioid receptor (Homo sapiens, UniProt P35372); experiment: Agonist activity at human cloned mu opioid receptor expressed in CHO cells assessed as stimulation of [35S]-GTP[gammaS] binding; type: cell-based
[22] = biological target: T2, Kappa-type opioid receptor; experiment: Agonist activity at human cloned kappa opioid receptor expressed in CHO cells assessed as stimulation of [35S]-GTP[gammaS] binding; type: functional, cell-based
[23] = biological target: Mu-type opioid receptor (Cavia porcellus) (UniProt P97266); experiment: (§1) Antagonist activity at mu opioid receptor in guinea pig caudate assessed as inhibition of DAMGO-stimulated [35S]-GTP[gammaS] binding; type: functional
[24] = species: Cavia porcellus; experiment: (§2) Antagonist activity at delta opioid receptor in guinea pig caudate assessed as inhibition of SNC-80-stimulated [35S]-GTP[gammaS] binding
[25] = biological target: Kappa-type opioid receptor (Cavia porcellus) (UniProt P41144)
[26] = Drug metabolism in human liver microsomes assessed as compound remaining after 1 hr; type: ADME; settings: read-out: Drug metabolism
[27] = biological target: T3, Mu-type opioid receptor; experiment: Inhibition of mu opioid receptor (unknown origin) using DAMGO by high content imaging beta-arrestin translocation assay
[28] = biological target: 5-hydroxytryptamine receptor 2B (Homo sapiens, UniProt P41595); experiment: Binding affinity to 5-HT2B receptor (unknown origin)
[29] = biological target: Muscarinic acetylcholine receptor M1 (Homo sapiens, UniProt P11229); experiment: Binding affinity to muscarinic M1 receptor (unknown origin)
[30] = biological target: Sodium-dependent noradrenaline transporter (Homo sapiens, UniProt P23975); experiment: Binding affinity to NET (unknown origin)
[31] = biological target: Alpha-2C adrenergic receptor (Homo sapiens, UniProt P18825); experiment: Binding affinity to adrenergic alpha2C receptor (unknown origin)
[32] = biological target: Histamine H1 receptor (Homo sapiens, UniProt P35367); experiment: Binding affinity to histamine H1 receptor (unknown origin)
[33] = biological target: T3, Mu-type opioid receptor; experiment: Displacement of [3H]diprenorphine from mu opioid receptor (unknown origin) expressed in CHO cells membranes; type: cell membranes
[34] = biological target: T1, Delta-type opioid receptor; experiment: Displacement of [3H]diprenorphine from delta opioid receptor (unknown origin) expressed in CHO cells membranes; type: cell membranes
[35] = biological target: Kappa-type opioid receptor (Cavia porcellus, UniProt P41144); experiment: Antagonist activity at kappa opioid receptor in guinea pig ileum assessed as inhibition of U50488-stimulated [35S]-GTP[gammaS] binding; type: functional, tissue-based; settings: read-out: pA2 (converted)
[36] = biological target: T2, Kappa-type opioid receptor; experiment: Displacement of [3H]diprenorphine from kappa opioid receptor (unknown origin) expressed in CHO cells membranes; type: cell membranes
[37] = biological target: T4, Mu-type opioid receptor (Cavia porcellus, UniProt P97266); experiment: Antagonist activity at mu opioid receptor in guinea pig ileum assessed as inhibition of DAMGO-stimulated [35S]-GTP[gammaS] binding; type: functional, tissue-based; settings: read-out: pA2 (converted)
[38] = biological target: T4, Mu-type opioid receptor; experiment: as §1; type: functional
[39] = as §2; parameters: species or system Cavia porcellus
[40] = species: Mus musculus; experiment: Antinociceptive activity in mouse assessed as reversal of U50488-induced withdrawl latencies; type: functional
[41] = biological target: T2, Kappa-type opioid receptor; experiment: Antagonist activity at human cloned kappa opioid receptor expressed in CHO cells assessed as inhibition of U50488-stimulated [35S]-GTP[gammaS] binding; type: functional, cell-based
[42] = biological target: D(3) dopamine receptor (Homo sapiens, UniProt P35462); experiment: Binding affinity to dopamine D3 receptor (unknown origin)
[43] = Drug metabolism in mouse liver microsomes assessed as compound remaining after 1 hr; type: ADME; settings: read-out: Drug metabolism

T2 sequence (P41145 whole entry): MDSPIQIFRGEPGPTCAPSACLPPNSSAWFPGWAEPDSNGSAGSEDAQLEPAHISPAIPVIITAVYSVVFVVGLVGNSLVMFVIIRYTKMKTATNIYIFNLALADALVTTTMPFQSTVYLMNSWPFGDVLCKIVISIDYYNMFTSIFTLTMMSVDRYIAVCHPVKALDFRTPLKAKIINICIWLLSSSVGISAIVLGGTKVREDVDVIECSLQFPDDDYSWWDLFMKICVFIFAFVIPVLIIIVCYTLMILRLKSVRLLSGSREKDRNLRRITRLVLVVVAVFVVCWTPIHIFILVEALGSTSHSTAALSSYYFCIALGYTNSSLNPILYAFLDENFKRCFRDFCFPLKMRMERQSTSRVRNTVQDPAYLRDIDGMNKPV
T4 sequence (P97266 whole entry): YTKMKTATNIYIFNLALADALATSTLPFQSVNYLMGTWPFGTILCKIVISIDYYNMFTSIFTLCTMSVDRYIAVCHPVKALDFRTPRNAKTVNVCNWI
T3 sequence (P35372 whole entry): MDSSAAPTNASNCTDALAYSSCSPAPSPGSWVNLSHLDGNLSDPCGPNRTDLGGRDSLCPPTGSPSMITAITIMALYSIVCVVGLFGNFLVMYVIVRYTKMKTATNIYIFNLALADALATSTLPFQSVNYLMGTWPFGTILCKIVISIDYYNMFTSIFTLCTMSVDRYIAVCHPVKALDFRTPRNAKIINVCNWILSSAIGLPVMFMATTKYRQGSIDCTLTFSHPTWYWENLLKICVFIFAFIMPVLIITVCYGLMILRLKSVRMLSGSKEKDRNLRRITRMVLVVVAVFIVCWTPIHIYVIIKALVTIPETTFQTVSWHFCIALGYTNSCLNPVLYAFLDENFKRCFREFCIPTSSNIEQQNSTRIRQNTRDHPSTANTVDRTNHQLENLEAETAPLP
T1 sequence (P41143 whole entry): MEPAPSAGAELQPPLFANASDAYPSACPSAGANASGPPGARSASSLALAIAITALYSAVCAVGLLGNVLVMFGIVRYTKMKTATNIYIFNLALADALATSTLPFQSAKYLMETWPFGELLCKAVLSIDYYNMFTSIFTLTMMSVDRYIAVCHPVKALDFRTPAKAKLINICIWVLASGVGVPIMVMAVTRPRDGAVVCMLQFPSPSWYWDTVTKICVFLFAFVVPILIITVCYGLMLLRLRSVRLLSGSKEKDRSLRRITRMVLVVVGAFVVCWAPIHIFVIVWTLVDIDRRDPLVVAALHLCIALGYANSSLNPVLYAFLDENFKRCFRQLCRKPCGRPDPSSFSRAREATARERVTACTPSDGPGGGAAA
Chain of Sigma non-opioid intracellular receptor 1 (Q99720 whole entry): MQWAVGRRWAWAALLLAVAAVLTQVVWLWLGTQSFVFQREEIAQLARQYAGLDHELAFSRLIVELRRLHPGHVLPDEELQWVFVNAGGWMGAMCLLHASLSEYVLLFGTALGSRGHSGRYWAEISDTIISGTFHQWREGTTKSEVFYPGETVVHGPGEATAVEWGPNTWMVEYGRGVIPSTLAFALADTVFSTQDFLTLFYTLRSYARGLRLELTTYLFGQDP
Chain of Muscarinic acetylcholine receptor M3 (P20309 whole entry): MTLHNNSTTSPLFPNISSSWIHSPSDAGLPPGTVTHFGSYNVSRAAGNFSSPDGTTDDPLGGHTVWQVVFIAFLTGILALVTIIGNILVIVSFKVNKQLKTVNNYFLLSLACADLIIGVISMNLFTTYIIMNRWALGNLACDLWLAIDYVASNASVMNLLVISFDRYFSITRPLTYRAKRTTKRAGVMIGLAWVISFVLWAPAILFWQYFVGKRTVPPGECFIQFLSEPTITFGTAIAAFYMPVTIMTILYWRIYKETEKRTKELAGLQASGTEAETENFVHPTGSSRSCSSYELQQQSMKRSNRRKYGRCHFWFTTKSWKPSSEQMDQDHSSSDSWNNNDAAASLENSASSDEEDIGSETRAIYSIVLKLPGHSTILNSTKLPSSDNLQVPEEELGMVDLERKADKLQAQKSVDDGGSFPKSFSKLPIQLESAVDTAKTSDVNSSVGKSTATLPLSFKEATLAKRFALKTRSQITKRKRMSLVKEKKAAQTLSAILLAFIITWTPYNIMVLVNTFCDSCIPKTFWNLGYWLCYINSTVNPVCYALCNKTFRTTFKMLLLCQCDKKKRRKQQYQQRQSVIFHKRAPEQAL
Chain of Muscarinic acetylcholine receptor M2 (P08172 whole entry): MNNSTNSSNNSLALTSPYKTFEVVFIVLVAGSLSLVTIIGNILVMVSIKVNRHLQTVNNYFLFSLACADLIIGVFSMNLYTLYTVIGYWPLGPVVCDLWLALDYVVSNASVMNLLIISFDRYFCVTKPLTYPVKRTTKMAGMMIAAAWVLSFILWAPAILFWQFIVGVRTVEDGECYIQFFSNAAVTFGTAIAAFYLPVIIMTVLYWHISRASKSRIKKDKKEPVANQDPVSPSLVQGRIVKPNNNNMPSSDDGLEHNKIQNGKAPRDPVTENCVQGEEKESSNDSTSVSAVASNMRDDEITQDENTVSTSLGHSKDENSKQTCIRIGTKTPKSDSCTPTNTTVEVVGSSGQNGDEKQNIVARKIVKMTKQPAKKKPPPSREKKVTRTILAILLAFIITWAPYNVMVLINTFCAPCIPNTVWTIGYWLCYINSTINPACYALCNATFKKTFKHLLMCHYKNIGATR
Chain of Mu-type opioid receptor (Cavia porcellus) (P97266 whole entry): as the sequence (P97266 whole entry) above
Chain of Muscarinic acetylcholine receptor M4 (P08173 whole entry): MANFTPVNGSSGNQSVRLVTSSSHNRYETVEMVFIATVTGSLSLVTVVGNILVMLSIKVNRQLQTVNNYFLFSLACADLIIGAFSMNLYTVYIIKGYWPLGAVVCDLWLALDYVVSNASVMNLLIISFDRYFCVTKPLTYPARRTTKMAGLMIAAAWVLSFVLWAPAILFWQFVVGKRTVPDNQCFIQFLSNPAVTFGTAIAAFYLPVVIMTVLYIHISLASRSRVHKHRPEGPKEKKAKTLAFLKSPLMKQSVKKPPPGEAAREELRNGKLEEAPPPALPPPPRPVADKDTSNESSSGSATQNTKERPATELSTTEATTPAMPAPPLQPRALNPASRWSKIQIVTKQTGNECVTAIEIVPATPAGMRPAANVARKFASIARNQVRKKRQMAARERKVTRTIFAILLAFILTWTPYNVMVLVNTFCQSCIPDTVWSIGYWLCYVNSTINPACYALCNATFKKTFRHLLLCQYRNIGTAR
Chain of Sodium-dependent noradrenaline transporter (P23975 whole entry): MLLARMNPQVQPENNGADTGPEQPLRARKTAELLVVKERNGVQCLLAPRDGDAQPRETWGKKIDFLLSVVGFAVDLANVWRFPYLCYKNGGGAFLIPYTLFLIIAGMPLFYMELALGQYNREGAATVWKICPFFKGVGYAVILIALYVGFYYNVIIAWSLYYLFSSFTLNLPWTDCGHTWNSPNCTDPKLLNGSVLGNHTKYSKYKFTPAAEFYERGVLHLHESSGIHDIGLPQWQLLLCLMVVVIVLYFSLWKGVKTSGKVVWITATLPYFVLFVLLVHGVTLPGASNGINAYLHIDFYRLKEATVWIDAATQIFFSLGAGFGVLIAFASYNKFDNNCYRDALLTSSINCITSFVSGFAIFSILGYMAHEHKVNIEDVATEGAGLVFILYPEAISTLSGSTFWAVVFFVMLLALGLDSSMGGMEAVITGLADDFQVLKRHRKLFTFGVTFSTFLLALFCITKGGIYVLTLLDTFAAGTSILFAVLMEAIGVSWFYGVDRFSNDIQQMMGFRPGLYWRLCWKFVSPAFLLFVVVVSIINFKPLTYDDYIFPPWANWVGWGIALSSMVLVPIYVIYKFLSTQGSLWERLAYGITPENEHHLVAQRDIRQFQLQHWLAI
Chain of Kappa-type opioid receptor (Cavia porcellus) (P41144 whole entry): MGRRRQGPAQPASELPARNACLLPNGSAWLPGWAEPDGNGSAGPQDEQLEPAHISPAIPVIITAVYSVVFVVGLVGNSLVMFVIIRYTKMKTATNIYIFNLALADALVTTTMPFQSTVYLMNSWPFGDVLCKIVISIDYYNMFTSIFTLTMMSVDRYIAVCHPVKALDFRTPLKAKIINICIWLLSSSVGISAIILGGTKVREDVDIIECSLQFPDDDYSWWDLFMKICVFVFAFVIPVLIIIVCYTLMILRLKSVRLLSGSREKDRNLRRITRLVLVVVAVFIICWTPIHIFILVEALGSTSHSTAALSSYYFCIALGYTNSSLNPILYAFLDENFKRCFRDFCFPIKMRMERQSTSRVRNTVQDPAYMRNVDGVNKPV
Chain of Kappa-type opioid receptor (Cavia porcellus, UniProt P41144) (P41144 whole entry): as above
Chain of Histamine H1 receptor (P35367 whole entry): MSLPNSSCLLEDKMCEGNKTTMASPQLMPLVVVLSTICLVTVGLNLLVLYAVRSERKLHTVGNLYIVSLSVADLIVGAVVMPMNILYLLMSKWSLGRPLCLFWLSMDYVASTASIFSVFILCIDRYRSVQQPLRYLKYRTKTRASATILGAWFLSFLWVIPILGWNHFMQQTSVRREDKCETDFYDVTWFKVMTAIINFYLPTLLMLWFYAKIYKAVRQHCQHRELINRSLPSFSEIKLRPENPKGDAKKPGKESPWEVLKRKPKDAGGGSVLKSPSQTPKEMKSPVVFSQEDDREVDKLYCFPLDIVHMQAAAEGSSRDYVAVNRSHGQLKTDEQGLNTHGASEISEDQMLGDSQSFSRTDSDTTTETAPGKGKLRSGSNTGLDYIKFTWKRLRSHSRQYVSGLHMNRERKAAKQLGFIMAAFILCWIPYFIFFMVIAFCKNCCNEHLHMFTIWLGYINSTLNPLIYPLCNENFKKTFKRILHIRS

Compound: Cc1cc(C)cc([C@@H]2CCCN2Cc2ccc(Oc3ccc(C(N)=O)cc3F)cc2)c1 [ATICAPRANT]
- ED50 [1]: 0.4 mg/kg
- Ratio [2]: 43
- half-life [3]: 3.8 h
- Cmax [4]: 95 ng/mL
- clearance [5]: 89.3 mL/min/kg
- Cmax [6]: 334 ng/mL
- half-life [7]: 1.8 h
- AUC [8]: 186 ng·h/mL
- Tmax [9]: 0 h
- AUC [10]: 466 ng·h/mL
- bioavailability [11]: 25.4%
- Tmax [12]: 2 h

- IC50 [13]: > 32000 nM
- IC50 [14]: 30 nM
- Ki [15]: < 1000 nM
- Ki [16]: < 1000 nM
- Ki [17]: < 1000 nM
- IC50 [18]: 60 nM
- Ki [19]: < 1000 nM
Compound: Cc1ccc(S(=O)(=O)NCc2ccc(C(=O)NCCN(Cc3ccccc3)C(C)(C)C)cc2)cc1

Compound: CC1CN(CCCc2ccccc2)C2C[C@H](NCC3CC3)CC1(c1cccc(O)c1)C2 (some centres undefined)
- EC50 [20]: > 5000 nM
- EC50 [21]: 130000 nM
- EC50 [22]: > 5000 nM

Compound: CC(C)[C@@H](CN1CC[C@@](C)(c2cccc(O)c2)[C@@H](C)C1)NC(=O)[C@H](N)Cc1ccc(O)cc1
- Ke [23]: 12 nM
- Ke [24]: 334 nM
- Ke [25]: 44.6 nM

- IC50 [13]: > 32000 nM
- remaining at 1 h [26]: 0.07%
- IC50 [27]: > 24000 nM
- Ki [28]: < 1000 nM
- Ki [29]: < 1000 nM
- Ki [30]: < 1000 nM
- Ki [31]: < 1000 nM
- Ki [15]: < 1000 nM
- Ki [16]: < 1000 nM
- Ki [17]: < 1000 nM
- Ki [32]: < 1000 nM
- Ki [19]: < 1000 nM
Compound: Cc1ccc(S(=O)(=O)NCc2ccc(C(=O)NCCN(Cc3ccccc3)C(C)C)cc2)cc1

Compound: C[C@H]1CN(CCCOC(=O)[C@H]2Cc3ccc(O)cc3CN2)CC[C@@]1(C)c1cccc(O)c1
- Ki [33]: 6.55 nM
- Ki [34]: 221 nM
- Kb [35]: 174 nM
- Ki [36]: 25.2 nM
- Kb [37]: 93.3 nM

- IC50 [13]: > 32000 nM
- IC50 [27]: > 32000 nM
Compound: COc1ccc(N2CCN(CCCNC(=O)Cn3c(=O)c4cccn4c4ccccc43)CC2)cc1

Compound: CC(C)[C@@H](CN1CC[C@@](C)(c2cccc(O)c2)[C@@H](C)C1)NC(=O)[C@H]1Cc2ccc(O)cc2CN1 [JDTIC]
- Ki [38]: 2.16 nM
- Ki [39]: > 300 nM

Compound: C[C@H]1CN(CCOC(=O)[C@H]2Cc3ccc(O)cc3CN2)CC[C@@]1(C)c1cccc(O)c1
- Ki [33]: 186 nM
- Ki [34]: 475 nM
- Kb [35]: 135 nM
- Ki [36]: 159 nM
- Kb [37]: 97.7 nM

Compound: CC(C)[C@@H](CN1CC[C@@](C)(c2cccc(O)c2)[C@@H](C)C1)NC(=O)CCc1ccc(O)cc1
- Ke [24]: 450 nM

Compound: CO[C@H]1Cc2ccc(O)cc2C(C)(C)[C@@H]1N
- Activity [21]: 31.6%
- EC50 [21]: 234 nM

Compound: C[C@@H]1NC(=O)[C@@H]2CCCN2C(=O)[C@H](Cc2ccccc2)NC(=O)[C@H](Cc2c[nH]c3ccccc23)NC1=O (cyclo(AWFP))
- Time [40]: <18 h

Compound: CC1CN(CCCc2ccccc2)C2C[C@H](N)CC1(c1cccc(O)c1)C2 (some centres undefined)
- Ke [41]: 10.1 nM
- EC50 [20]: 7500 nM
- EC50 [21]: 19500 nM
- EC50 [22]: > 5000 nM

- IC50 [13]: > 32000 nM
- IC50 [27]: > 32000 nM
- Ki [42]: < 1000 nM
- Ki [30]: < 1000 nM
- remaining at 1 h [43]: 7.34%
- Ki [32]: < 1000 nM
Compound: COc1ccc(N2CCN(CCCNC(=O)Cn3c(=O)c4cccn4c4c(C)ccnc43)CC2)cc1

Compound: CC(C)CC(=O)N1Cc2cc(O)ccc2C[C@@H]1C(=O)N[C@H](CN1CC[C@@](C)(c2cccc(O)c2)[C@@H](C)C1)C(C)C
- Ke [23]: 29 nM
- Ke [24]: 628 nM
- Ke [25]: 0.16 nM

- IC50 [13]: > 32000 nM
Compound: COc1ccc(N2CCN(CCCNC(=O)Cn3c(=O)c4cccn4c4cc(Br)cnc43)CC2)cc1
